Measured values from patent US11524014B2, “Pharmaceutical formulations and systems for delivery of an androgenic agent and an aromatase inhibitor with sustained multi-phasic release profiles and methods of use” (Havah Therapeutics Pty Ltd., priority 2019, dated 2022).
Where “and” joins values, the source holds several entries; their conditions need not be identical. Identical values can stand only once. Like-named read-outs stand apart in the source and are kept apart here.

Columns and labels:
[1] = clinical; details: female, human, in vivo; for half-life: t1/2, arithmetic mean (terminal half-life)
Method: Pre-menopausal women with high Mammographic Breast Density (MBD) was selected for the study. Following the successful screening, participants came to the Wellend Clinic South Australia for dosing. The participants were to be dosed while in the luteal phase of their menstrual cycle to avoid the highly changing hormonal environment of the follicular phase. Following insertion of the implant, PK blood sampling was carried out for a duration of three months. Briefly, samples were taken repeatedly on the day of dosing, daily during the first week, weekly for the next four weeks and every second week during the last eight weeks, for a total sampling period of three months. After assessments had been completed on the last day of assessments, Day 85, the trial concluded.
The sampling schedule was revised with the addition of one blood sample (at 6 hours post-dose), and no adjustment of the timing of existing time points. The duration of sampling was not extended.
In summary, following dosing on Day 1, blood samples were taken pre-dose (within one hour of dosing) and at 1, 2, 4, 6, 8 and 12 hours. Participants returned for a blood sample to be taken at 9 am in the morning on Days 2, 3, 4, 5, 8, 15, 22, 29, 43, 57, 71 and 85.
A total of 11 subjects were dosed and included in the safety analysis set. Eleven subjects were included in the PK analysis set. Women were aged between 35 and 55 years of age, Body Mass Index (BMI) range of 20-30 kg/m^2.

[2] = tested on: IL-6; details: female breast cells treated with testosterone (Guhl, 2012); cited from earlier work
[3] = Population pharmacokinetic modelling of anastrozole from the Example 1 trial; type: in vivo, human
Method: Data in these figures are presented as mean+/−standard deviation. […] The percentage change from baseline was calculated for the average volume and plotted against time in months. […] In FIG. 8A, the data on the X axis is plotted in time (hours) after transplantation. In FIG. 8B the X axis is on a log scale. In FIGS. 8A-B, the open circles equal observed data, the black line equals median PK profile, and the dashed dark grey line equals lower limit of quantification (0.1 ng/mL).
One and two compartment models were fitted to the data. Several absorption models were tested such as first and zero order, mixed order, as well as transit compartments. Model selection was performed on the basis of statistical criteria (objective function) as well as visual inspection of diagnostic plots. […] Between-subject variability (BSV) was included on apparent clearance (CL/F), apparent volume of distribution for the central compartment (Vc/F) and the first-order absorption rate constant (KA). A proportional error model was used to describe residual unexplained variability (RUV).

[4] = oral anastrozole; cited from earlier work
[5] = two-compartment model with dual input, T+Ai implant, n=11

In the case of `C[C@]12CCC(=O)C[C@@H]1CC[C@@H]1[C@@H]2CC[C@]2(C)[C@@H](O)CC[C@@H]12` [dihydrotestosterone, 5 alpha dihydrotestosterone], the serum level measurability (serum dihydrotestosterone after single s.c. T+Ai implant) is reported as “not measurable in most samples” and the Tmax ([1]; Tmax post-dose, serum dihydrotestosterone, participants with measurable maximal values) is reported as 48 to 72 h.
For `C[C@]12CC[C@H]3[C@@H](CCC4=CC(=O)CC[C@@]43C)[C@@H]1CC[C@@H]2O` [Testosterone, testosterone], the “time of second lower serum peak” value (serum testosterone after single s.c. T+Ai implant) is given as 2-3 weeks, the “Cmax, arithmetic mean” value (single s.c. T+Ai implant 80 mg/4 mg, women, n=11, anastrozole in plasma, testosterone in serum) is given as 4.08 ng/mL and the “reduction of IL-6 levels” value [2] is given as 53%. The Tmax ([1]; sc) was 8 h, the Cmax ([1]; sc, Cmax, arithmetic mean, single s.c. T+Ai implant 80 mg/4 mg, women, n=11, anastrozole in plasma, testosterone in serum) was 4.1 ng/mL and the half-life ([1]; sc, single s.c. T+Ai implant 80 mg/4 mg, women, n=11, anastrozole in plasma, testosterone in serum) was 1030 h.
In the case of `CC(C)(C#N)c1cc(Cn2cncn2)cc(C(C)(C)C#N)c1` [Anastrozole, 2,2′-[5-(1H-1,2,4-triazol-1-ylmethyl)-1,3-phenylene]bis(2-methylpropanenitrile)], the “Fraction absorbed via second input” value ([3]; fixed in the model (FIX)) is reported as 0.5 FIX, the “Absorbtion rate constant (ka) first input, estimated value (% RSE)” value [3, 5] is reported as 0.119 (20.6) /hr and the “Absorbtion rate constant (ka) second input, estimated value (% RSE)” value [3, 5] is reported as 0.148 (20.5) /hr. For the same compound, the “Apparent central volume of distribution (Vc/F), estimated value (% RSE)” value [3, 5] was 672 (3.0) L, the “Apparent clearance (CL/F), estimated value (% RSE)” value [3, 5] was 1.77 L/hr and 1.77 (6.9) L/hr and the “Apparent peripheral volume of distribution (Vp/F), estimated value (% RSE)” value [3, 5] was 106 (29.8) L. The “Inter-compartmental clearance (Q/F), estimated value (% RSE)” value [3, 5] was 0.97 (57.7) L/hr, the “Lagged time for second input, estimated value (% RSE)” value [3, 5] was 3.77 (9.7) h and the “t1/2, arithmetic mean (terminal half-life)” value (female, human, in vivo, sc) was 326 h. For the same compound, the “CL/F, arithmetic mean (NCA)” value (human, in vivo, sc) was 1.88 L/h, the half-life [4] was 48 h and the concentration at 12 weeks [1] was under 0.1 ng/mL. It also gave a Tmax ([1]; sc, Tmax, median, single s.c. T+Ai implant 80 mg/4 mg, women, n=11, anastrozole in plasma, testosterone in serum) of 48.6 h, a Tmax ([1]; sc, median Tmax post-dose, plasma anastrozole after single s.c. T+Ai implant, range 1-3 days) of 48 h and a half-life ([1]; sc) of 336 h.
